Laboratory results as given in US20250152702A1, “EPICHAPEROME INHIBITION TO IMPROVE T CELL RESPONSES” (priority 2023, published 2025).
“Also recorded” adds a separate entry of the source. Like-named read-outs stand apart in the source and are kept apart here.

Legend:
Hsp90 = details: cited from earlier work
[1] = system: E.G7 (OVA+) lymphoma cells; assay: Anti-tumor response in OVA-immunized mice challenged with E.G7 lymphoma; type: in vivo, C57BL/6 mice
Description: FIGS. 3A-3H. Disruption of the epichaperome using PU-H71 improves OVA-specific T cells response and anti-tumor immune response in a mouse model. (A) C57BL/6 (B6) mice were injected intraperitoneally (i.p.) with PU-H71 (75 mg/kg) n=8 or PBS n=8 on days 0, 3 and 7. On day 1, all mice were immunized subcutaneously (s.c.) with 100 μg OVA emulsified in incomplete Freund's adjuvant (IFA), experimental controls shown in schema. Peripheral blood (PB) was collected on days 0, 5 and 9, and the spleen was collected at the end of the experiment, on day 9. (B, C) T cell immunization against OVA was assessed by measuring IFN[…] release from T cells after exposure with OVA using Elispot assay. Two-tailed T test (D) Anti-OVA IgG in serum was assessed by ELISA. (E) B6 mice were immunized with OVA treated with PU-H71 (75 mg/kg) n=8 or PBS n=8 on days 11, 15 and 18. PB and spleen were collected at the end of the experiment, on day 20. (F) T cell immunization against OVA was assessed by measuring IFN[…] by Elispot assay. […] On day 7 after immunization, mice challenged with OVA-expressing EG.7 tumor cells (H) tumor volume was assessed every 2-3 days using calipers. p values shown for day 13 assessment by one-way ANOVA. […]
In vivo assessment in an anti-tumor response model: E.G7 cells are OVA-expressing cells derived from the C57BL/6 (H-2b) mouse lymphoma cell line EL4, allowing for the establishment of a syngeneic lymphoma mouse model to evaluate anti-tumor protection after OVA immunization (39). […] At day 7 after immunization, lymphoma cells will be injected subcutaneously into the mice, and tumor growth will be evaluated twice a week using micro calipers. Tumor volume will be determined as mm^3=length×width^2 (41). Survival will be also determined as an endpoint (mice will be euthanized when tumor size reaches 2000 mm^3 or the animals lose more than 10% of weight). Differences in tumor growth and survival will be determined in mice immunized with OVA and PU-H71 compared to the controls OVA+IFA or no immunization. […]

IFNγ-secreting T cells = assay: OVA immunization of mice, OVA-specific T cell response by IFNγ ELISPOT; type: in vivo, C57BL/6 mice
Description: FIGS. 3A-3H. Disruption of the epichaperome using PU-H71 improves OVA-specific T cells response and anti-tumor immune response in a mouse model. (A) C57BL/6 (B6) mice were injected intraperitoneally (i.p.) with PU-H71 (75 mg/kg) n=8 or PBS n=8 on days 0, 3 and 7. On day 1, all mice were immunized subcutaneously (s.c.) with 100 μg OVA emulsified in incomplete Freund's adjuvant (IFA), experimental controls shown in schema. Peripheral blood (PB) was collected on days 0, 5 and 9, and the spleen was collected at the end of the experiment, on day 9. (B, C) T cell immunization against OVA was assessed by measuring IFN[…] release from T cells after exposure with OVA using Elispot assay. Two-tailed T test (D) Anti-OVA IgG in serum was assessed by ELISA. (E) B6 mice were immunized with OVA treated with PU-H71 (75 mg/kg) n=8 or PBS n=8 on days 11, 15 and 18. PB and spleen were collected at the end of the experiment, on day 20. (F) T cell immunization against OVA was assessed by measuring IFN[…] by Elispot assay. […] On day 7 after immunization, mice challenged with OVA-expressing EG.7 tumor cells (H) tumor volume was assessed every 2-3 days using calipers. p values shown for day 13 assessment by one-way ANOVA.
(§1) The effects of an epichaperome disrupter, PU-H71, were tested on C57BL/6 mice immune responses to ovalbumin (OVA) immunization. OVA-specific T- and B-cell responses were evaluated by ELISPOT and ELISA, respectively. […]
In vivo: In vivo assessment in immunization model: the well-characterized in vivo immunization model that utilizes chicken ovalbumin (OVA) will be used. […] Antibody production against OVA will be assessed in the peripheral blood (PB) at day 9 to confirm that the immunization took place (40). PU-H71 will be evaluated at different dosing schedules: before OVA administration to assess an effect on priming, shortly after OVA administration to assess an effect on T cell proliferation and polarization, and after the response has been completed (11 days) to evaluate an effect on the already ongoing response (for this cohort, mice will be sacrificed 9 days after PU-H71 treatment). […]

NALM6-BLIV cells = assay: B-ALL NSG mouse model with NALM6-BLIV cells, PU-H71 combined with CART19; type: in vivo
Description: Nalm-6 xenograft: Xenografts will be initiated using CD19^+ B-cell acute lymphoblastic leukemia (B-ALL), Nalm-6 cells expressing luciferase and GFP (BLIV/GFP) transplanted into NSG mice (59). Anti-CD19 CAR T cells (CART19/4-1BB) or non-transduced T cells (NTC) will be administered once engraftment is confirmed by bioluminescence and flow cytometry. Four treatment cohorts will be studied: (1) saline, (2) PU-H71 (75 mg/kg i.p. bi-weekly), (3) CART19/4-1BB, (4) PU-H71 (75 mg/kgi.p. bi-weekly)+CART19/4-1BB. Each cohort will consist of 8 mice, ensuring >80% power at two-sided alpha of 0.05 to detect a standardized effect size of 1.6 in tumor burden and immune cell modulation, and will include both male and female mice. The PU-H71 dose and schedule will be determined based on data (9, 17). Tumor progression will be monitored weekly using bioluminescence imaging, with CAR T cell percentage and phenotype assessed in PB from day 2 onwards and every subsequent week, as published previously (17, 59). Bone marrow (BM) aspirates on day 14 will assess tumor burden and CAR T persistence. At the endpoint, the spleen, BM, and PB will be harvested to determine leukemia burden and CAR T cell phenotype.

anti-OVA IgG = assay: OVA immunization of mice, anti-OVA antibody by ELISA; type: in vivo, C57BL/6 mice; details: PU-H71 at the time of priming
Description: FIGS. 3A-3H. Disruption of the epichaperome using PU-H71 improves OVA-specific T cells response and anti-tumor immune response in a mouse model. (A) C57BL/6 (B6) mice were injected intraperitoneally (i.p.) with PU-H71 (75 mg/kg) n=8 or PBS n=8 on days 0, 3 and 7. On day 1, all mice were immunized subcutaneously (s.c.) with 100 μg OVA emulsified in incomplete Freund's adjuvant (IFA), experimental controls shown in schema. Peripheral blood (PB) was collected on days 0, 5 and 9, and the spleen was collected at the end of the experiment, on day 9. (B, C) T cell immunization against OVA was assessed by measuring IFN[…] release from T cells after exposure with OVA using Elispot assay. Two-tailed T test (D) Anti-OVA IgG in serum was assessed by ELISA. (E) B6 mice were immunized with OVA treated with PU-H71 (75 mg/kg) n=8 or PBS n=8 on days 11, 15 and 18. […] (F) T cell immunization against OVA was assessed by measuring IFN[…] by Elispot assay. […] On day 7 after immunization, mice challenged with OVA-expressing EG.7 tumor cells (H) tumor volume was assessed every 2-3 days using calipers. p values shown for day 13 assessment by one-way ANOVA.
as §1

activated T cells = assay: Activated human T cells treated with PU-H71: survival and surface phenotype by flow cytometry; type: cell-based
Description: FIGS. 2A-2D. Epichaperomes are formed in activated T cells and their disruption impacts T cell activation phenotype but not survival. (A) Resting T cells from healthy donors were assayed for the abundance of epichaperomes by flow cytometry. (B) Purified T cells activated with anti-CD3/CD28 beads were tested for changes in epichaperome abundance 20 h after activation and compared with resting T cells and MV4-11 as a positive control. n=3, One-way ANOVA ** p<0.002, *** p<0.0002 (C, D) T cells were treated with 1 μM PU-H71 upon activation to assess the effect of epichaperome disruption on survival (C) and cell surface phenotype (CD4, CD8, CD25, CD69, HLA-DR) n=3 *p<0.03 two-tailed T-test (D).
Thus, epichaperome formation skews the balance of T cell populations and functions towards an immunosuppressive outcome, a balance that can be restored to a cytotoxic function by epichaperome disruptors. This leads to a role of epichaperome disruptors, such as PU-H71, in CAR T cell cytotoxicity and the ability of epichaperome disruptors, such as, PU-H71, to improve the outcomes of AML patients in the post-transplant setting by improving GvL without affecting GvHD.

[2] = system: NALM6 (CD19+ B-ALL cell line)
Description: FIGS. 7A-7C. […] (A) Schematic representation. CART19/4-1BB or control T cells were cultured with NALM6 (CD19^+ B-ALL cell line) for 18 h at a E:T ratio of 1:1. (B) Cytotoxicity was evaluated by flow cytometry and represented as relative to the number of dead cells in the control cells (no effector cells). Experiment performed in triplicate, Error bar represents the SEM, significance assessed using ANOVA test. (C) In vivo testing.
To better understand its effect on human T cells and its potential adjuvant effect during cellular therapy, in vitro and in vivo chimeric antigen receptor (CAR)-T cell (CAR-T cells) phenotype and function in the presence of PU-H71 was tested. […] Finally, the therapeutic effect of the combination of PU-H71 and CART19 was evaluated in a B-ALL NSG mouse model using NALM6-BLIV cells, with bioluminescence imaging and flow cytometry (CART19 and leukemic cells) monitoring.
To investigate the impact of epichaperome disruption on CAR T cells, CART19/4-1BB was generated and tested. […] Subsequently, the impact of epichaperome disruption on the function of CART19/4-1BB cells was assessed during co-culture with leukemia cells expressing CD19. The cytotoxic effect of CART19/4-1BB cells against Nalm-6 (CD19^+ B-ALL cell line) was measured with or without 1 μM PU-H71 (FIG. 7).

[3] = system: acute myeloid leukemia (AML); details: cited from earlier work; for exacerbation of GvHD in the patient: patient with donor T cell chimerism after failed allo-HSCT; for duration of complete remission: single agent, AML patient with high epichaperome abundance, post-transplant relapse

CC(C)NCCCn1c(Sc2cc3c(cc2I)OCO3)nc2c(N)ncnc21 [PU-H71, 8-[(6-iodo-1,3-benzodioxol-5-yl)sulfanyl]-9-[3-(propan-2-ylamino)propyl]purin-6-amine]
binding preference for Hsp90 form (Hsp90): preferential binding to Hsp90 when it is in the highly integrated complexed form that is the epichaperome
in vivo anti-tumor immune response / tumor progression ([1]; OVA-primed mice plus PU-H71, E.G7 challenge): significantly decreases tumor progression; also recorded: improved in vivo anti-tumor immune responses
ability to control tumor progression ([1]; PU-H71 without immunization, n=6): 16 days
ability to control tumor progression ([1]; mice immunized against OVA without IFA and treated with PU-H71, OVA alone 16 days, saline 14 days, n=8): 18 days
number of IFNγ-secreting T cells (median) (IFNγ-secreting T cells; PU-H71 75 mg/kg i.p. at the time of priming, OVA immunization, ELISPOT, n=8, controls 42, p=0.0002): 126 per million of cells
effect on OVA-specific T cell response (IFNγ-secreting T cells; PU-H71 administered once the OVA-specific T cell response was ongoing): no effect
impact on T cell phenotype (IFNγ-secreting T cells; PU-H71 at the time of priming): without overt impact; also recorded: without an impact
CART19 numbers in the bone marrow (NALM6-BLIV cells): increases CART19 numbers in the bone marrow
in vivo antitumor efficacy of CART19 against NALM6 (NALM6-BLIV cells): improves their in vivo antitumor efficacy
impact on anti-OVA antibody levels (anti-OVA IgG): without overt impact; also recorded: without an impact
CD4 to CD8 ratio (activated T cells; 1 μM PU-H71 upon activation): increase of CD8^+ cells; also recorded: skewed towards more CD8^+ cells
expression of activation marker CD69 (activated T cells; 1 μM PU-H71 upon activation): not significantly changed
viability of activated T cells (activated T cells; 1 μM PU-H71 upon activation with anti-CD3/CD28 beads): no detrimental effect
in vitro cytotoxicity of CAR-T cells toward NALM6 B-ALL cells [2]: 74.66%
myelosuppression and drug-related toxicities ([3]; patient treated for >5 yrs): without significant myelosuppression or drug-related extramedullary toxicities
exacerbation of GvHD in the patient [3]: did not exacerbate GvHD; also recorded: did not exacerbate these symptoms
exacerbation of GvHD in the patient ([3]; listed as Zelavespib): without exacerbation of GvHD
exacerbation of GvHD in the patient ([3]; listed as zelavespib): no clinically relevant exacerbation
time to complete remission (CR) ([3]; single AML patient): ≤ 45 days
duration of complete remission [3]: over five years
duration of complete remission ([3]; listed as Zelavespib): > 5 years
duration of complete remission ([3]; listed as zelavespib): over 5 years
